Test results from US20060286130A1, “Sterile gelling agents” (priority 2005, published 2006).

Key:
[1] = Sterilization by dry heat, appearance of the material; type: physicochemical; conditions: 180° C. for 2 hours
Procedure: Sorbitan monostearate (Sanyo, Japan) was subjected to sterilization by dry heat at a temperature of 180° C. for 2 hours. […] The material thus obtained though it would pass the test for sterility renders the final product unacceptable for pharmiaceutical use because of the dark brown color it imparts.

[2] = Sterilization by gamma irradiation, appearance / degradation of the gelling agent; type: physicochemical; conditions: 25 KGy, 60Cobalt source
Text: In an additional embodiment of the invention, the sterile dried bulk gelling agent is subjected to sterilization by gamma irradiation. […] Other materials in the gelled polymeric dispersion can be processed by other techniques as described above and generally known in the art of preparation of sterile dosage forms.
Sorbitan monostearate prepared in Example 1 was exposed to gamma irradiation at a dose of 25 KGy using a ^60Cobalt source at a contract irradiation laboratory. A dose of 25 KGy is accepted internationally to be sufficient to ensure sterility (British Pharmacopoeia).

Row | appearance after sterilization by dry heat [1] | change in appearance after gamma irradiation [2] | Substance
1 | dark brown colored mass |  | Sorbitan monostearate [listing 1 of 2 here]
2 |  | no change in appearance | Sorbitan monostearate [listing 2 of 2 here]
